These results are taken from ChEMBL document CHEMBL3639170, “Carboxy isatin hydrazones and their esters as Shp2 inhibitors” (2014).

In this assay the target is T1, Tyrosine-protein phosphatase non-receptor type 11 (Homo sapiens, UniProt Q06124).
T1 sequence (Q06124 whole entry): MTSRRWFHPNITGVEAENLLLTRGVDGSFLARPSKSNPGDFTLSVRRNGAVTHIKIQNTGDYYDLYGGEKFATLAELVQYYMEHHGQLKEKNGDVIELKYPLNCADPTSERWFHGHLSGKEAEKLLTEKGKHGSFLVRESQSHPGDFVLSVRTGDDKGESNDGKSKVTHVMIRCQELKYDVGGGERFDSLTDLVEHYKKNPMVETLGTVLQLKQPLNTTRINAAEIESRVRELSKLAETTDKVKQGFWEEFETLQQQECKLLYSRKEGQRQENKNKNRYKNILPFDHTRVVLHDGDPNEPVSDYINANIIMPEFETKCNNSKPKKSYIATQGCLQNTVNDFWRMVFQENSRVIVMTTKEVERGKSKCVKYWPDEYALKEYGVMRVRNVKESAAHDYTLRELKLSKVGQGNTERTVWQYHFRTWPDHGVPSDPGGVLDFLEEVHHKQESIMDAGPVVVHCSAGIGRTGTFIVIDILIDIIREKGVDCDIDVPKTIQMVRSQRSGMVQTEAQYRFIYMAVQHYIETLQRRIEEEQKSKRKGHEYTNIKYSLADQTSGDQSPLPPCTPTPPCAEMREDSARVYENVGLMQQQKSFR
In words: Inhibition Assay: In vitro Shp2 PTP activity inhibition assay for determination of IC50 was performed with a recombinant GST-Shp2 PTP domain protein using 6,8-difluoro-4-methylumbelliferyl phosphate (DiFMUP, Invitrogen) as the substrate similar to that described previously (Chen, et al., Discovery of a novel shp2 protein tyrosine phosphatase inhibitor. Mol Pharmacol 2006; 70:562-70).

For the molecule `O=C(O)C(O)CC(=O)N1CCc2cc(S(=O)(=O)N3CCN(c4cccc(Cl)c4)CC3)ccc21` (stereo unspecified), the IC50 is 8.2 µM.

In general, IC50 refers to the concentration at which inhibition is half-maximal.
